Experimental data from article PMC7948467, “Discovery of an ultraspecific triuret hydrolase (TrtA) establishes the triuret biodegradation pathway” (The Journal of Biological Chemistry, 2020).

How the values were obtained:
[1] = biological target: T1, RhdBiuH (Rhodococcus sp. Mel, UniProt H8ZKV9, C169S); test: X-ray crystal structure; format: binding; settings: cocrystal with biuret; active site; inactive mutant
T1 construct: recombinant

[2] = biological target: T2, TrtA (Herbaspirillum sp. BH-1, UniProt A0A2N6JFX7); test: inhibition of triuret hydrolysis; format: biochemical; settings: likely competitive; Ki not determinable because biuret contains about 1 mol% triuret; inhibition only above 50 mM, where TrtA precipitates; tag state not stated
T2 construct: N-terminal 6xHis tag and thrombin site kept, pET28a, E. coli BL21(DE3), codon-optimized; subunit 24 kDa, homodimer
T2 sequence (A0A2N6JFX7 1-227): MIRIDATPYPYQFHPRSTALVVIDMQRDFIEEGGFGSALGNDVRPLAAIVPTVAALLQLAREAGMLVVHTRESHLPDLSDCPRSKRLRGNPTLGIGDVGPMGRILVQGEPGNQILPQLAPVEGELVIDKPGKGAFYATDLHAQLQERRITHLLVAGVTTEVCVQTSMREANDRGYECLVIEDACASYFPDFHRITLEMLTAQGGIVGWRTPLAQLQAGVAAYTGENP

[3] = biological target: T3, CtermDelΔ7+Cleaved His-tag (Herbaspirillum sp. BH-1, UniProt A0A2N6JFX7); test: ammonia release, Berthelot assay; format: biochemical; settings: phosphate buffer, pH 8, 25 °C
T3 construct: gene trtA
Description: ammonia release, Berthelot assay on CtermDelΔ7+Cleaved His-tag

T1 sequence (H8ZKV9 entry or part of it C169S): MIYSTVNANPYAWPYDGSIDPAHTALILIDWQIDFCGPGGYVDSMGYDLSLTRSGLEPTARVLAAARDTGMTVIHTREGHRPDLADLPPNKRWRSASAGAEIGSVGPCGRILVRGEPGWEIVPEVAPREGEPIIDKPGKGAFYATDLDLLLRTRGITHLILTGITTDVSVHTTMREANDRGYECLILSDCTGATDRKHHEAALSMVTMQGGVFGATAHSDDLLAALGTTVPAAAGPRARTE

Km [3] | SMILES | X-ray crystal structure [1] | inhibition of triuret hydrolysis [2]
 | NC(=O)NC(N)=O [biuret] | The cocrystal with biuret showed similar mode of binding to that of BiuH | Inhibition data suggests that biuret is a competitive inhibitor
16 ± 2 µM | NC(=O)NC(=O)NC(N)=O [triuret] |  | 
